This note sets out measurements from article PMC10331488, “Targeting apolipoprotein E and N-terminal amyloid β-protein precursor interaction improves cognition and reduces amyloid pathology in Alzheimer’s mice” (The Journal of Biological Chemistry, 2023).

Peptide text beside a SMILES is read from it.

The conditions of this series: mouse, in vivo, ip.

Description: Finally, to examine whether 6KApoEp did enter the brain to interact with APP, we aimed to identify 6KApoEp in vehicle- and 6KApoEp-treated APP/PS1/E2/E3/E4 mouse brains by Western blotting with antibody against LDLR binding domain (residues 133–152) of human apoE that is the analogous epitope as 6KApoEp except for 6K. […] Moreover, we examined the stability of 6KApoEp in the mouse plasma at different incubation times (i.e., 0, 3, 6, 12, and 24 h) at 37 °C by Western blotting using the same antibody.
The right five lanes denote a series of 6KApoEp calibration peptides (i.e., 20, 40, 80, 160, and 320 ng). Brain homogenates were obtained from APP/PS1/E2 mice that received vehicle (APP/PS1/E2-V) or 6KApoEp (APP/PS1/E2-6KApoEp), APP/PS1/E3 mice that received vehicle (APP/PS1/E3-V) or 6KApoEp (APP/PS1/E3-6KApoEp), and APP/PS1/E4 mice that received vehicle (APP/PS1/E4-V) or 6KApoEp (APP/PS1/E4-6KApoEp) for 3 months starting at 12 months of age. B, Western blotting data for the calibration graph were obtained from a series of 6KApoEp calibration peptides (i.e., 20, 40, 80, 160, and 320 ng). […] Western blotting data for (B) included each mouse (n = 4 per group with two of each sex), and quantitative data were averaged. […] D, the experiment was performed four times, and quantitative data were averaged (Table S23). […]

As for `CC(C)C[C@H](NC(=O)[C@H](CCCNC(=N)N)NC(=O)[C@@H](NC(=O)[C@H](CCCNC(=N)N)NC(=O)[C@H](CC(C)C)NC(=O)[C@H](CCCCN)NC(=O)[C@H](CCCCN)NC(=O)[C@H](CCCCN)NC(=O)[C@H](CCCCN)NC(=O)[C@H](CCCCN)NC(=O)[C@@H](N)CCCCN)C(C)C)C(=O)N[C@@H](C)C(=O)N[C@@H](CO)C(=O)N[C@@H](Cc1c[nH]cn1)C(=O)N[C@@H](CC(C)C)C(=O)N[C@@H](CCCNC(=N)N)C(=O)N[C@@H](CCCCN)C(=O)N[C@@H](CC(C)C)C(=O)N[C@@H](CCCNC(=N)N)C(=O)N[C@@H](CCCCN)C(=O)N[C@@H](CCCNC(=N)N)C(=O)N[C@@H](CC(C)C)C(=O)N[C@@H](CC(C)C)C(=O)N[C@@H](CCCNC(=N)N)C(=O)N[C@@H](CC(=O)O)C(=O)N[C@@H](C)C(=O)O` [6KApoEp] (H-KKKKKKLRVRLASHLRKLRKRLLRDA-OH), the “Whole-brain 6KApoEp level relative to the daily dose (7.5 μg)” value is given as 3.4-6.7 times the daily dose.
